Reference: paper PMC8279409, “Novel Mixed NOP/Opioid Receptor Peptide Agonists” (Journal of Medicinal Chemistry, 2021)
Where “and” joins values, the source holds several entries; their conditions need not be identical. Equal values may be shown once. Read-outs that look alike come from different tables or passages of the source. Where a SMILES comes first, the peptide text is derived from it. Where no end group is shown, it is not given here. [ ]: non-standard residue; d: D form. Dip = N[C@H](C(=O)O)C(c1ccccc1)c1ccccc1; Phe(4-NH2) = Nc1ccc(C[C@H](N)C(=O)O)cc1; 1Nal = N[C@@H](Cc1cccc2ccccc12)C(=O)O; 2Nal = N[C@@H](Cc1ccc2ccccc2c1)C(=O)O; Dmt = Cc1cc(O)cc(C)c1C[C@H](N)C(=O)O; Phg = N[C@H](C(=O)O)c1ccccc1

Assays:
[1] = target: T1, human mu receptor (Homo sapiens, UniProt P35372); test: Calcium mobilization, mu opioid receptor; type: cell-based; conditions: for Emax / activation at 10 µM: percent over the baseline fluorescence, SEM; for Emax: mean ± SEM of at least three experiments in duplicate; for mu pEC50 (CL95%): CHO cells coexpressing human mu receptor and Gαqi5, Fluo-4 AM, 37 °C, mean of at least three experiments in duplicate, CL95% in brackets; for pEC50_mu: molecular formula strings CSV, repeats calcium mobilization values of Tables 1-3; for activation at 10 µM: mean ± SEM
T1 construct: expressed in transfected cells; host or cells: CHO cells stably coexpressing the receptor and chimeric Gαqi5
T1 sequence (P35372 whole entry): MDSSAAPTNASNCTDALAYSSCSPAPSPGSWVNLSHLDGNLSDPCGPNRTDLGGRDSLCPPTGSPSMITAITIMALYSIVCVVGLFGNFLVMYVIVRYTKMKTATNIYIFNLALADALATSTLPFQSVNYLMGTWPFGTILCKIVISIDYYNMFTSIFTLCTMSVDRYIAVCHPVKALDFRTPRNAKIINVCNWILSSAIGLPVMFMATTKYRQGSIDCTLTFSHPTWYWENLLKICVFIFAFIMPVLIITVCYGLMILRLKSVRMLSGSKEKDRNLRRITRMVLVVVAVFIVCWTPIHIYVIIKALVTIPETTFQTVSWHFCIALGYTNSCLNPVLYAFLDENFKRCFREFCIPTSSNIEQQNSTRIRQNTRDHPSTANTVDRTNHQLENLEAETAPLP

[2] = target: T2, human NOP receptor (Homo sapiens, UniProt P41146); test: Calcium mobilization, NOP receptor; type: cell-based; conditions: for Emax: mean ± SEM of at least three experiments in duplicate, SEM; for NOP pEC50 (CL95%): CHO cells coexpressing human NOP and Gαqi5, Fluo-4 AM, 37 °C, mean of at least three experiments in duplicate, CL95% in brackets; for NOP/mu CR (concentration ratio): calcium mobilization, NOP versus mu
T2 construct: expressed in transfected cells; host or cells: CHO cells stably coexpressing the receptor and chimeric Gαqi5
T2 sequence (P41146 whole entry): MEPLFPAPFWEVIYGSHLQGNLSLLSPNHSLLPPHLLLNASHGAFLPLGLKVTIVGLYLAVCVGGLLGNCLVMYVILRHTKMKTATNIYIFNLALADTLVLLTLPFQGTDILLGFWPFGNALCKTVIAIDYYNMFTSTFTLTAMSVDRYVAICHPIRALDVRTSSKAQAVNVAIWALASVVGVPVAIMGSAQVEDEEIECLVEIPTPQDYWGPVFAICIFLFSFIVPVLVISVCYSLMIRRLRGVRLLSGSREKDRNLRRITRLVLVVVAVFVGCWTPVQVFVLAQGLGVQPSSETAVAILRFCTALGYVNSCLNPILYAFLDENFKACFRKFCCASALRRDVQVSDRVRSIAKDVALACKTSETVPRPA
Procedure: CHO cells stably coexpressing the human NOP or kappa or the mu receptor and the C-terminally modified Gαqi5 and CHO cells coexpressing the delta receptor and the GαqG66Di5 protein were generated and cultured as described previously.[45],[46] Cells were maintained in Dulbecco’s modified Eagle’s medium/nutrient mixture F-12 (DEMEM/F-12) supplemented with 10% FBS, 100 U/mL penicillin and 100 μg/mL streptomycin, 100 μg/mL hygromicin B, and 200 μg/mL G418 and cultured at 37 °C in 5% CO2 humidified air. Cells were seeded at a density of 50,000 cells/well into 96-well black, clear-bottom plates. The following day, the cells were incubated with Hanks’ balanced salt solution (HBSS) supplemented with 2.5 mM probenecid, 3 μM of the calcium-sensitive fluorescent dye Fluo-4 AM, and 0.01% pluronic acid for 30 min at 37 °C. After that time, the loading solution was aspirated and 100 μL/well of HBSS supplemented with 20 mM HEPES, 2.5 mM probenecid, and 500 μM brilliant black was added. Serial dilutions were carried out in HBSS/HEPES (20 mM) buffer (containing 0.02% BSA fraction V). After placing both plates (cell culture and master plate) into the fluorometric imaging plate reader FlexStation II (Molecular Devices, Sunnyvale, CA), fluorescence changes were measured. On-line additions were carried out in a volume of 50 μL/well. To facilitate drug diffusion into the wells, the present studies were performed at 37 °C. Maximum change in fluorescence, expressed as percent over the baseline fluorescence, was used to determine agonist response.
The pharmacological terminology adopted in this paper is consistent with IUPHAR recommendations.[59] All data are expressed as the mean ± standard error of the mean (SEM) of at least three experiments performed in duplicate. […] Concentration-response curves to agonists were fitted to the classical four-parameter logistic nonlinear regression model:
Effect = Baseline + (Emax – Baseline)/(1 + 10^(LogEC50 – Log[compound]) × Hillslope). Curve fitting was performed using PRISM 6.0 (GraphPad Software Inc., San Diego).

[3] = read-out: mu Emax ± S.E.M., Table 3 series
[4] = read-out: NOP Emax ± S.E.M., Table 3 series, percent over the baseline fluorescence
[5] = read-out: mu effect at 10 μM (crc incomplete), Table 2 series
[6] = read-out: NOP Emax ± S.E.M., Table 2 series, percent over the baseline fluorescence
[7] = read-out: NOP Emax ± S.E.M., Table 1 series, maximum change in fluorescence as percent over the baseline fluorescence
[8] = read-out: mu Emax ± S.E.M., Table 2 series

With `Cc1cc(O)cc(C)c1C[C@H](NC(=O)[C@H](Cc1ccccc1)NC(=O)CNC(=O)CNC(=O)[C@@H](N)Cc1c(C)cc(O)cc1C)C(=O)NCC(=O)N[C@@H](C)C(=O)N[C@@H](CCCNC(=N)N)C(=O)N[C@@H](CCCCN)C(=O)N[C@@H](CO)C(=O)N[C@@H](C)C(=O)N[C@@H](CCCNC(=N)N)C(=O)N[C@@H](CCCCN)C(N)=O` [Compound 35, [Dmt^1,5]N/OFQ(1-13)-NH2] (H-[Dmt]GGF[Dmt]GARKSARK-NH2) the Emax [1, 3] was 354 ± 16% and the Emax [2, 4] was 270 ± 25%.

With `C[C@H](NC(=O)CNC(=O)[C@H](Cc1ccc2ccccc2c1)NC(=O)[C@H](Cc1ccccc1)NC(=O)CNC(=O)CNC(=O)[C@@H](N)Cc1ccc(O)cc1)C(=O)N[C@@H](CCCNC(=N)N)C(=O)N[C@@H](CCCCN)C(=O)N[C@@H](CO)C(=O)N[C@@H](C)C(=O)N[C@@H](CCCNC(=N)N)C(=O)N[C@@H](CCCCN)C(N)=O` [Compound 26, [Tyr^1,2Nal^5]N/OFQ(1-13)-NH2] (H-YGGF[2Nal]GARKSARK-NH2) the “mu pEC50 (CL95%)” value ([1]; Table 2 series) was “crc incomplete; 10 μM: 244 ± 10”, the pEC50_mu [1] was “crc incomplete” and the activation at 10 µM [1, 5] was 244 ± 10%. The “NOP pEC50 (CL95%)” value ([2]; Table 2 series) was 6.82 (6.60–7.04), the “NOP/mu CR (concentration ratio)” value ([2]; Table 2 series) was 0.19 and the Emax [2, 6] was 266 ± 15%.

Molecule `Cc1cc(O)cc(C)c1C[C@H](N)C(=O)NCC(=O)NCC(=O)N[C@@H](Cc1ccccc1)C(=O)N[C@@H](Cc1cccc2ccccc12)C(=O)NCC(=O)N[C@@H](C)C(=O)N[C@@H](CCCNC(=N)N)C(=O)N[C@@H](CCCCN)C(=O)N[C@@H](CO)C(=O)N[C@@H](C)C(=O)N[C@@H](CCCNC(=N)N)C(=O)N[C@@H](CCCCN)C(N)=O` [Compound 33, [Dmt^1,1Nal^5]N/OFQ(1-13)-NH2] (H-[Dmt]GGF[1Nal]GARKSARK-NH2) has an Emax [1, 3] of 349 ± 20% and an Emax [2, 4] of 286 ± 19%.

With “YGGFNGARKSARK-NH2 [Compound 4, [Tyr^1,Asn^5]N/OFQ(1-13)-NH2]” the “mu pEC50 (CL95%)” value ([1]; Table 1 series) was “crc incomplete; 10 μM: 209 ± 29”, the pEC50_mu [1] was “crc incomplete” and the activation at 10 µM ([1]; read-out: mu effect at 10 μM (crc incomplete), Table 1 series) was 209 ± 29%. For the same molecule, the “NOP pEC50 (CL95%)” value ([2]; Table 1 series, FlexStation II) was 8.70 (8.26–9.11), the “NOP/mu CR (concentration ratio)” value ([2]; Table 1 series) was 0.002 and the Emax [2, 7] was 327 ± 15%.

In the case of `Cc1cc(O)cc(C)c1C[C@H](NC(=O)[C@H](Cc1ccccc1)NC(=O)CNC(=O)CNC(=O)[C@@H](N)Cc1ccc(O)cc1)C(=O)NCC(=O)N[C@@H](C)C(=O)N[C@@H](CCCNC(=N)N)C(=O)N[C@@H](CCCCN)C(=O)N[C@@H](CO)C(=O)N[C@@H](C)C(=O)N[C@@H](CCCNC(=N)N)C(=O)N[C@@H](CCCCN)C(N)=O` [Compound 28, [Tyr^1,Dmt^5]N/OFQ(1-13)-NH2] (H-YGGF[Dmt]GARKSARK-NH2), the Emax [1, 8] is reported as 301 ± 35% and the Emax [2, 6] is reported as 251 ± 22%.

With “YGGFTGARKSARK-NH2 [Compound 3, [Tyr^1]N/OFQ(1-13)-NH2, reference compound]” the EC50 [1] was 1580 nM and the EC50 [2] was 0.741 nM and 0.708 nM.

`C[C@H](NC(=O)CNC(=O)[C@@H](NC(=O)[C@H](Cc1ccccc1)NC(=O)CNC(=O)CNC(=O)[C@@H](N)Cc1ccc(O)cc1)C(c1ccccc1)c1ccccc1)C(=O)N[C@@H](CCCNC(=N)N)C(=O)N[C@@H](CCCCN)C(=O)N[C@@H](CO)C(=O)N[C@@H](C)C(=O)N[C@@H](CCCNC(=N)N)C(=O)N[C@@H](CCCCN)C(N)=O` [Compound 23, [Tyr^1,Dip^5]N/OFQ(1-13)-NH2] (H-YGGF[Dip]GARKSARK-NH2) was tested, and the “mu pEC50 (CL95%)” value ([1]; Table 2 series) was 6.78 (6.28–7.27), the Emax [1, 8] was 331 ± 32% and the “NOP pEC50 (CL95%)” value ([2]; Table 2 series) was 6.61 (6.13–7.09). The “NOP/mu CR (concentration ratio)” value ([2]; Table 2 series) was 1.48 and the Emax [2, 6] was 240 ± 26%.

For “YGGFLGARKSARK-NH2 [Compound 11, [Tyr^1,Leu^5]N/OFQ(1-13)-NH2]”, the “mu pEC50 (CL95%)” value ([1]; Table 1 series) was 6.08 (5.95–6.21), the Emax ([1]; read-out: mu Emax ± S.E.M, Table 1 series) was 339 ± 25% and the “NOP pEC50 (CL95%)” value ([2]; Table 1 series, FlexStation II) was 8.03 (7.46–8.60). For the same molecule, the “NOP/mu CR (concentration ratio)” value ([2]; Table 1 series) was 0.01 and the Emax [2, 7] was 339 ± 24%.

For `C[C@H](NC(=O)CNC(=O)[C@H](Cc1cccc2ccccc12)NC(=O)[C@H](Cc1ccccc1)NC(=O)CNC(=O)CNC(=O)[C@@H](N)Cc1ccc(O)cc1)C(=O)N[C@@H](CCCNC(=N)N)C(=O)N[C@@H](CCCCN)C(=O)N[C@@H](CO)C(=O)N[C@@H](C)C(=O)N[C@@H](CCCNC(=N)N)C(=O)N[C@@H](CCCCN)C(N)=O` [Compound 25, [Tyr^1,1Nal^5]N/OFQ(1-13)-NH2] (H-YGGF[1Nal]GARKSARK-NH2), the “mu pEC50 (CL95%)” value ([1]; Table 2 series) was 6.08 (5.67–6.49), the Emax [1, 8] was 319 ± 31% and the “NOP pEC50 (CL95%)” value ([2]; Table 2 series) was 7.17 (6.82–7.52). The “NOP/mu CR (concentration ratio)” value ([2]; Table 2 series) was 0.08 and the Emax [2, 6] was 245 ± 16%.

`Cc1cc(O)cc(C)c1C[C@H](N)C(=O)NCC(=O)NCC(=O)N[C@@H](Cc1ccccc1)C(=O)N[C@H](C(=O)NCC(=O)N[C@@H](C)C(=O)N[C@@H](CCCNC(=N)N)C(=O)N[C@@H](CCCCN)C(=O)N[C@@H](CO)C(=O)N[C@@H](C)C(=O)N[C@@H](CCCNC(=N)N)C(=O)N[C@@H](CCCCN)C(N)=O)[C@@H](C)O` [Compound 29, [Dmt^1]N/OFQ(1-13)-NH2, reference compound] gave an Emax [1, 3] of 311 ± 20% and an Emax [2, 4] of 294 ± 22%.

For `Cc1cc(O)cc(C)c1C[C@H](N)C(=O)NCC(=O)NCC(=O)N[C@@H](Cc1ccccc1)C(=O)N[C@H](C(=O)NCC(=O)N[C@@H](C)C(=O)N[C@@H](CCCNC(=N)N)C(=O)N[C@@H](CCCCN)C(=O)N[C@@H](CO)C(=O)N[C@@H](C)C(=O)N[C@@H](CCCNC(=N)N)C(=O)N[C@@H](CCCCN)C(N)=O)c1ccccc1` [Compound 32, [Dmt^1,Phg^5]N/OFQ(1-13)-NH2] (H-[Dmt]GGF[Phg]GARKSARK-NH2), the Emax [1, 3] was 339 ± 28% and the Emax [2, 4] was 282 ± 12%.

In the case of `COc1ccc(C[C@H](NC(=O)[C@H](Cc2ccccc2)NC(=O)CNC(=O)CNC(=O)[C@@H](N)Cc2ccc(O)cc2)C(=O)NCC(=O)N[C@@H](C)C(=O)N[C@@H](CCCNC(=N)N)C(=O)N[C@@H](CCCCN)C(=O)N[C@@H](CO)C(=O)N[C@@H](C)C(=O)N[C@@H](CCCNC(=N)N)C(=O)N[C@@H](CCCCN)C(N)=O)cc1` [Compound 20, [Tyr^1,p(OCH3)Phe^5]N/OFQ(1-13)-NH2] (H-YGGFY(Me)GARKSARK-NH2), the “mu pEC50 (CL95%)” value ([1]; Table 2 series) is reported as “crc incomplete; 10 μM: 221 ± 49”, the pEC50_mu [1] is reported as “crc incomplete” and the activation at 10 µM [1, 5] is reported as 221 ± 49%. For the same molecule, the Emax [2, 6] was 246 ± 18%.

In the case of `Cc1cc(O)cc(C)c1C[C@H](N)C(=O)NCC(=O)NCC(=O)N[C@@H](Cc1ccccc1)C(=O)N[C@@H](Cc1ccc(O)cc1)C(=O)NCC(=O)N[C@@H](C)C(=O)N[C@@H](CCCNC(=N)N)C(=O)N[C@@H](CCCCN)C(=O)N[C@@H](CO)C(=O)N[C@@H](C)C(=O)N[C@@H](CCCNC(=N)N)C(=O)N[C@@H](CCCCN)C(N)=O` [Compound 30, [Dmt^1,Tyr^5]N/OFQ(1-13)-NH2] (H-[Dmt]GGFYGARKSARK-NH2), the Emax [1, 3] is reported as 410 ± 25% and the Emax [2, 4] is reported as 304 ± 21%.

In the case of `C[C@H](NC(=O)CNC(=O)[C@H](Cc1ccc(N)cc1)NC(=O)[C@H](Cc1ccccc1)NC(=O)CNC(=O)CNC(=O)[C@@H](N)Cc1ccc(O)cc1)C(=O)N[C@@H](CCCNC(=N)N)C(=O)N[C@@H](CCCCN)C(=O)N[C@@H](CO)C(=O)N[C@@H](C)C(=O)N[C@@H](CCCNC(=N)N)C(=O)N[C@@H](CCCCN)C(N)=O` [Compound 27, [Tyr^1,(pNH2)Phe^5]N/OFQ(1-13)-NH2] (H-YGGF[Phe(4-NH2)]GARKSARK-NH2), the Emax [1, 8] is reported as 329 ± 37% and the Emax [2, 6] is reported as 274 ± 15%.
